The text below walks through data of paper PMC3995882, “Antimicrobial and Immunomodulatory Activities of PR-39 Derived Peptides” (PLoS ONE, 2014).

The test system of one assay is B. globigii. Type of assay: cell-based, Bacillus globigii. The note with it: colony counting, 3 h 37°C, 10 mM phosphate buffer pH 7.0 with 1/1000 TSB, MBC = <100 CFU/ml; for MBC B. globigii 0 mM NaCl: 2×10^6 CFU/ml, no NaCl added; for MBC B. globigii +100 mM NaCl: 100 mM NaCl added. As to the method: (§1) Overnight cultures of E. coli and B. globigii were grown in TSB medium at 37°C to mid-logarithmic phase. The antimicrobial activity of the PR-39 derived peptides was tested using colony counting as described before. In short, cells were collected via centrifugation at 900×g for 10 minutes, and resuspended in 10 mM phosphate buffer, pH 7.0, containing 1/1000 TSB medium (Buffer A). Cells were further diluted to 2×10^6 CFU/ml in the same buffer. Next, 25 µl of cell suspension was mixed with an equal volume of different concentrations of peptides ranging from 0–80 µM, and incubated further for 3 hours at 37°C. Ten-fold dilutions were prepared in minimal buffer containing 1/1000 TSB medium in distilled water, and 100 µl from each dilution was spread on TSA plates (Trypton Soy Agar; Oxoid). The plates were incubated at 37°C and the number of colonies was counted 24 h later to determine the number of surviving bacteria. Minimal Bactericidal Concentration (MBC) was defined as <100 CFU/ml corresponding to the detection limit of this assay. To determine the dependence of activity of PR-39 on the energy status of the cell, E. coli was incubated 30 min at 37°C in the presence of the metabolic uncouplers 50 µM carbonyl cyanide m-chlorophenylhydrazone (CCCP), or 5 mM 2,4-dinitrophenol (DNP). Subsequently, an antimicrobial activity assay was performed as described above.

In the next assay the test system is E. coli. Briefly: Colony counting assay (MBC). The note with it: 3 h 37°C, 10 mM phosphate buffer pH 7.0 with 1/1000 TSB, MBC = <100 CFU/ml; for MBC E. coli 0 mM NaCl: 2×10^6 CFU/ml, no NaCl added; for MBC E. coli 100 mM NaCl: 100 mM NaCl added. It counts as cell-based, Escherichia coli. As to the method: as §1

Molecules are shown by their SMILES. ≈ marks a conversion by molar mass, not a printed value. Where a SMILES comes first, the peptide text is derived from it.

As to `CC(C)C[C@H](NC(=O)[C@H](Cc1ccc(O)cc1)NC(=O)[C@@H]1CCCN1C(=O)[C@@H]1CCCN1C(=O)[C@H](CCCNC(=N)N)NC(=O)[C@@H]1CCCN1C(=O)[C@H](CCCNC(=N)N)NC(=O)[C@H](CCCNC(=N)N)NC(=O)[C@@H](N)CCCNC(=N)N)C(=O)N1CCC[C@H]1C(=O)N[C@@H](CCCNC(=N)N)C(=O)N1CCC[C@H]1C(=O)N[C@@H](CCCNC(=N)N)C(=O)N1CCC[C@H]1C(=O)N1CCC[C@H]1C(=O)O` [PR-39(1–15)] (H-RRRPRPPYLPRPRPP-OH), in the assay with B. globigii, the “MBC B. globigii 0 mM NaCl” value is 5 µM (≈ 9.56 µg/mL) and the “MBC B. globigii +100 mM NaCl” value is above 40 µM. Further, in the assay with E. coli, the “MBC E. coli 0 mM NaCl” value is 5 µM (≈ 9.56 µg/mL) and the “MBC E. coli 100 mM NaCl” value is above 40 µM.

Take `CC(C)C[C@H](NC(=O)[C@H](Cc1ccc(O)cc1)NC(=O)[C@@H]1CCCN1C(=O)[C@@H]1CCCN1C(=O)[C@H](CCCNC(=N)N)NC(=O)[C@@H]1CCCN1C(=O)[C@H](CCCNC(=N)N)NC(=O)[C@H](CCCNC(=N)N)NC(=O)[C@@H](N)CCCNC(=N)N)C(=O)N1CCC[C@H]1C(=O)N[C@@H](CCCNC(=N)N)C(=O)N1CCC[C@H]1C(=O)N[C@@H](CCCNC(=N)N)C(=O)N1CCC[C@H]1C(=O)N1CCC[C@H]1C(=O)N1CCC[C@H]1C(=O)N[C@@H](Cc1ccccc1)C(=O)N[C@@H](Cc1ccccc1)C(=O)O` [PR-39(1–18)] (H-RRRPRPPYLPRPRPPPFF-OH): in the assay on B. globigii, the “MBC B. globigii 0 mM NaCl” value turned out to be 2.5 µM (≈ 5.76 µg/mL) and the “MBC B. globigii +100 mM NaCl” value was 10 µM (≈ 23 µg/mL). Also, in the assay with E. coli, the “MBC E. coli 0 mM NaCl” value amounted to 5 µM (≈ 11.5 µg/mL) and the “MBC E. coli 100 mM NaCl” value is 20 µM (≈ 46.1 µg/mL).

On to `CC(C)C[C@H](NC(=O)[C@H](CCCNC(=N)N)NC(=O)[C@@H]1CCCN1C(=O)[C@@H]1CCCN1C(=O)[C@H](Cc1ccccc1)NC(=O)[C@H](Cc1ccccc1)NC(=O)[C@@H]1CCCN1C(=O)[C@@H]1CCCN1C(=O)[C@@H]1CCCN1C(=O)[C@H](CCCNC(=N)N)NC(=O)[C@@H]1CCCN1C(=O)[C@H](CCCNC(=N)N)NC(=O)[C@@H]1CCCN1C(=O)[C@H](CC(C)C)NC(=O)[C@H](Cc1ccc(O)cc1)NC(=O)[C@@H]1CCCN1C(=O)[C@@H]1CCCN1C(=O)[C@H](CCCNC(=N)N)NC(=O)[C@@H]1CCCN1C(=O)[C@H](CCCNC(=N)N)NC(=O)[C@H](CCCNC(=N)N)NC(=O)[C@@H](N)CCCNC(=N)N)C(=O)O` [PR-39(1–22)] (H-RRRPRPPYLPRPRPPPFFPPRL-OH), for which, in the assay on B. globigii, the “MBC B. globigii 0 mM NaCl” value was determined as 2.5 µM (≈ 6.92 µg/mL) and the “MBC B. globigii +100 mM NaCl” value was determined as 10 µM (≈ 27.7 µg/mL). In the assay on E. coli, the “MBC E. coli 0 mM NaCl” value stood at 1.25 µM (≈ 3.46 µg/mL) and the “MBC E. coli 100 mM NaCl” value came out at 2.5 µM (≈ 6.92 µg/mL).

For `CC[C@H](C)[C@H](NC(=O)[C@H](CCCNC(=N)N)NC(=O)[C@@H]1CCCN1C(=O)[C@@H]1CCCN1C(=O)[C@H](CC(C)C)NC(=O)[C@H](CCCNC(=N)N)NC(=O)[C@@H]1CCCN1C(=O)[C@@H]1CCCN1C(=O)[C@H](Cc1ccccc1)NC(=O)[C@H](Cc1ccccc1)NC(=O)[C@@H]1CCCN1C(=O)[C@@H]1CCCN1C(=O)[C@@H]1CCCN1C(=O)[C@H](CCCNC(=N)N)NC(=O)[C@@H]1CCCN1C(=O)[C@H](CCCNC(=N)N)NC(=O)[C@@H]1CCCN1C(=O)[C@H](CC(C)C)NC(=O)[C@H](Cc1ccc(O)cc1)NC(=O)[C@@H]1CCCN1C(=O)[C@@H]1CCCN1C(=O)[C@H](CCCNC(=N)N)NC(=O)[C@@H]1CCCN1C(=O)[C@H](CCCNC(=N)N)NC(=O)[C@H](CCCNC(=N)N)NC(=O)[C@@H](N)CCCNC(=N)N)C(=O)O` [PR-39(1–26)] (H-RRRPRPPYLPRPRPPPFFPPRLPPRI-OH), in the assay on B. globigii, the “MBC B. globigii 0 mM NaCl” value was 5 µM (≈ 16.1 µg/mL) and the “MBC B. globigii +100 mM NaCl” value stood at 5 µM (≈ 16.1 µg/mL). Moreover, in the assay on E. coli, the “MBC E. coli 0 mM NaCl” value is reported as 2.5 µM (≈ 8.07 µg/mL) and the “MBC E. coli 100 mM NaCl” value is listed as 1.25 µM (≈ 4.04 µg/mL).

Regarding `CC[C@H](C)[C@H](NC(=O)[C@H](CCCNC(=N)N)NC(=O)[C@@H]1CCCN1C(=O)[C@@H]1CCCN1C(=O)[C@H](CC(C)C)NC(=O)[C@H](CCCNC(=N)N)NC(=O)[C@@H]1CCCN1C(=O)[C@@H]1CCCN1C(=O)[C@H](Cc1ccccc1)NC(=O)[C@H](Cc1ccccc1)NC(=O)[C@@H]1CCCN1)C(=O)N1CCC[C@H]1C(=O)N1CCC[C@H]1C(=O)NCC(=O)N[C@@H](Cc1ccccc1)C(=O)N1CCC[C@H]1C(=O)N1CCC[C@H]1C(=O)N[C@@H](CCCNC(=N)N)C(=O)N[C@@H](Cc1ccccc1)C(=O)N1CCC[C@H]1C(=O)N1CCC[C@H]1C(=O)N[C@@H](CCCNC(=N)N)C(=O)N[C@@H](Cc1ccccc1)C(=O)N1CCC[C@H]1C(=O)O` [PR-39(16–39)] (H-PFFPPRLPPRIPPGFPPRFPPRFP-OH), in the assay with B. globigii, the “MBC B. globigii 0 mM NaCl” value is recorded as 10 µM (≈ 28.3 µg/mL) and the “MBC B. globigii +100 mM NaCl” value is reported as above 40 µM. Moreover, in the assay with E. coli, the “MBC E. coli 0 mM NaCl” value was 10 µM (≈ 28.3 µg/mL) and the “MBC E. coli 100 mM NaCl” value is listed as above 40 µM.

Regarding `CC[C@H](C)[C@H](NC(=O)[C@H](CCCNC(=N)N)NC(=O)[C@@H]1CCCN1C(=O)[C@@H]1CCCN1C(=O)[C@H](CC(C)C)NC(=O)[C@H](CCCNC(=N)N)NC(=O)[C@@H]1CCCN1)C(=O)N1CCC[C@H]1C(=O)N1CCC[C@H]1C(=O)NCC(=O)N[C@@H](Cc1ccccc1)C(=O)N1CCC[C@H]1C(=O)N1CCC[C@H]1C(=O)N[C@@H](CCCNC(=N)N)C(=O)N[C@@H](Cc1ccccc1)C(=O)N1CCC[C@H]1C(=O)N1CCC[C@H]1C(=O)N[C@@H](CCCNC(=N)N)C(=O)N[C@@H](Cc1ccccc1)C(=O)N1CCC[C@H]1C(=O)O` [PR-39(20–39)] (H-PRLPPRIPPGFPPRFPPRFP-OH), in the assay on B. globigii, the “MBC B. globigii 0 mM NaCl” value was 20 µM (≈ 46.8 µg/mL) and the “MBC B. globigii +100 mM NaCl” value is listed as above 40 µM. Besides, in the assay on E. coli, the “MBC E. coli 0 mM NaCl” value turned out to be 5 µM (≈ 11.7 µg/mL) and the “MBC E. coli 100 mM NaCl” value is on record as above 40 µM.

For `CC[C@H](C)[C@H](NC(=O)[C@H](CCCNC(=N)N)NC(=O)[C@@H]1CCCN1)C(=O)N1CCC[C@H]1C(=O)N1CCC[C@H]1C(=O)NCC(=O)N[C@@H](Cc1ccccc1)C(=O)N1CCC[C@H]1C(=O)N1CCC[C@H]1C(=O)N[C@@H](CCCNC(=N)N)C(=O)N[C@@H](Cc1ccccc1)C(=O)N1CCC[C@H]1C(=O)N1CCC[C@H]1C(=O)N[C@@H](CCCNC(=N)N)C(=O)N[C@@H](Cc1ccccc1)C(=O)N1CCC[C@H]1C(=O)O` [PR-39(24–39)] (H-PRIPPGFPPRFPPRFP-OH), in the assay on B. globigii, the “MBC B. globigii 0 mM NaCl” value came out at 40 µM (≈ 75 µg/mL) and the “MBC B. globigii +100 mM NaCl” value is on record as above 40 µM. Besides, in the assay with E. coli, the “MBC E. coli 0 mM NaCl” value is 40 µM (≈ 75 µg/mL) and the “MBC E. coli 100 mM NaCl” value is on record as above 40 µM.
